Source: patent US20090181901A1, “COMPOSITIONS AND METHODS TO INCREASE BIOAVAILABILITY OF CAROTENOIDS” (priority 2007, published 2009)

What was measured:
[1] = In vitro stability of lutein in pH 7.0 buffer (UV-VIS degradation ratio); format: physicochemical
Description: 10.0 mg ([…]) lutein in 10 ml was added to a volumetric flask and diluted to volume with THF. In a small beaker, 0.50 g PEO (20) sorbitan monooleate was dissolved in 15.0 g de-ionized water. 1.0 ml lutein THF solution was added into the water solution and sonicated until a clear yellow micro-emulsion was formed.
10.0 mg (0.006 mmol) bilberry extract was added to a second 10 ml volumetric flask and filled to volume with de-ionized water. 1.0 ml bilberry extract solution was transferred to a small beaker and sonicated until a homogeneous solution was obtained. 1.0 ml of the bilberry solution was placed into a 10 ml colorless volumetric flask and filled to volume with sodium phosphate buffer (pH=7.0). The buffered solution was placed into a 37° C. water bath for 5 hours. UV-VIS spectrometery was used to analyze the degradation ratio. All samples were made alike. Similarly, L-cysteine was used in place of bilberry extract.

[2] = Cellular uptake of Lutein (free form) in CaCo-2 cells; format: in vitro ADME; details: human, 10 mg Lutein/100 mL medium, alone or plus 160 mg bilberry extract or 180 mg Bil/Cys
Description: (§1) CaCo-2 cells were cultured in Dulbeccos's Modified Eagle Medium containing 20% fetal bovine serum, 1.2% nonessential amino acids, 0.83 mM L-glutamine, 1.2% penicillin-streptomycin and 0.1% mercaptoethanole in an atmosphere of 5% CO2 and 95% air at 37° C.
(§2) Cells were grown in 75 cm^2 culture-flasks (T75) and sub-cultured after one week (every other day washed with PBS buffer, removed with trypsin and transferred to a new culture flask).
For experiments, cells were seeded in 6 well plates at a density of 3×10^5 cells per well and grown in an atmosphere of 5% CO2 and 95% air at 37° C. 7 to 8 days until confluence was reached. The cells were washed with PBS buffer, incubated with 4 ml medium containing the suspended samples for 30, 60 or 120 minutes.
After the corresponding incubation time, the cells were washed with PBS buffer and removed using 1 ml of TBME. Cells were sonicated 3 times for 30 seconds, centrifuged for 10 min and the pellets were discarded. The supernatant was used as sample for HPLC (lutein). For luteindipalmitinic-ester the supernatant was hydrolyzed by reflux heating in ethanol/HCl.
Cmax was taken directly from the concentration/time data obtained from the analysis. […]
Quantification was performed by external standardization after linear regression analysis. […]

CaCo-2 cells [3] = assay: Cellular uptake of Lutein and Zeaxanthine in CaCo-2 cells with or without black currant extract; format: in vitro ADME; details: for Level observed in cells: 9 mg Lutein+1 mg Zeaxanthine/100 mL; for Absorption in presence of black currant extract (in words): compared with absence of black currant extract; for Factor by which absorption is increased in presence of Black Currant extract: with vs without Black Currant extract
Description: CaCo-2 cells were cultured in Dulbeccos's Modified Eagle Medium (DMEM) containing 20% fetal bovine serum, 1.2% nonessential amino acids, 0.83 mM L-glutamine, 1.2% penicillin-streptomycin and 0.1% mercaptoethanole in an atmosphere of 5% CO2 and 95% air at 37° C.
as §2
For experiments, cells were seeded in 6 well plates at a density of 3×10^5 cells per well and grown in an atmosphere of 5% CO2 and 95% air at 37° C., 7 to 8 days until confluence was reached. The cells were washed with PBS buffer, incubated with 4 ml medium containing the suspended samples for 30, 60 or 120 minutes.
After the corresponding incubation time, the cells were washed with PBS buffer and removed using 1 ml of TBME. Cells were sonicated 3 times for 30 seconds, centrifuged for 10 min and the pellets were discarded. The supernatant was used as sample for HPLC (lutein).
Cmax was taken directly from the concentration/time data obtained from the analysis.
The concentration/time data obtained from the analysis were further submitted to non-compartmental calculation of the AUC0-120min using the trapezoidal rule.
(§3) Quantification was performed by external standardization after linear regression analysis.
CaCo-2 cells were incubated with (9 mg Lutein+1 mg Zeaxanthine, see Table 6)/100 mL with or without 160 mg black currant extract/100 mL medium. Incubations were performed at 37° C. for 30, 60 and 120 minutes. At each time point, 3 wells were processed for analysis by collection of the incubation medium and extraction of Lutein/Zeaxanthine absorbed into the cells.

[4] = Stability of Lutein and Zeaxanthine in incubation medium (control experiment); format: physicochemical; details: for Stability in incubation medium: 37° C.; for Breakdown in incubation medium (in words): test assay conditions, 120 minutes at 37° C.
Text: In a control experiment, the stability of the analytes under the experimental conditions was investigated.

CaCo-2 cells [5] = assay: Cellular uptake of Lutein (esterified form) in CaCo-2 cells; format: in vitro ADME; details: 20 mg Luteindipalmitinic-ester/100 mL medium, alone or plus 160 mg bilberry extract or 180 mg Bil/Cys; 37° C.; lutein quantified after hydrolysis
Description: as §1, §2
For experiments, cells were seeded in 6 well plates at a density of 3×10^5 cells per well and grown in an atmosphere of 5% CO2 and 95% air at 37° C. 7 to 8 days until confluence was reached. The cells were washed with PBS buffer, incubated with 4 ml medium containing the suspended samples for 30, 60 or 120 minutes. […]
as §3
CaCo-2 cells were incubated with 20 mg Luteindipalmitinic-ester/100 mL medium, 20 mg (0.019 mmol) Luteindipalmitinic-ester plus 160 mg bilberry extract (25% anthocyanins, 0.08 mmol)/100 mL medium or 20 mg Luteindipalmitinic-ester plus 180 mg Bil/Cys [equivalent to 162 mg bilberry (25% anthocyanins, 0.081 mmol) and 18 mg (0.149 mmol) L-cysteine] at 37° C. for 30, 60 and 120 minutes. […] After hydrolysis of the luteinester, lutein was quantified in the cells.

[6] = Time 0 min, with BC (160 mg black currant extract/100 mL)
[7] = Time 30 min, with BC (160 mg black currant extract/100 mL)
[8] = Time 60 min, with BC (160 mg black currant extract/100 mL)
[9] = Time 120 min, with BC (160 mg black currant extract/100 mL)
[10] = with BC (160 mg black currant extract/100 mL)
[11] = Time 120 min, slight increase ascribed to evaporation of the medium

Structure (SMILES) | Relative cellular uptake (sum of lutein and Zeaxanthine set to 100%) (CaCo-2 cells [3]; 30 min, With Black Currant) | Relative cellular uptake (sum of lutein and Zeaxanthine set to 100%) (CaCo-2 cells [3]; 30 min, Without Black Currant) | Relative cellular uptake (sum of lutein and Zeaxanthine set to 100%) (CaCo-2 cells [3]; 60 min, With Black Currant) | Relative cellular uptake (sum of lutein and Zeaxanthine set to 100%) (CaCo-2 cells [3]; 60 min, Without Black Currant) | Relative cellular uptake (sum of lutein and Zeaxanthine set to 100%) (CaCo-2 cells [3]; 120 min, With Black Currant) | Relative cellular uptake (sum of lutein and Zeaxanthine set to 100%) (CaCo-2 cells [3]; 120 min, Without Black Currant) | Level observed in cells (CaCo-2 cells [3]; [6]) | Level observed in cells (CaCo-2 cells [3]; Time 0 min, without BC) | Level observed in cells (CaCo-2 cells [3]; [7]) | Level observed in cells (CaCo-2 cells [3]; Time 30 min, without BC) | Level observed in cells (CaCo-2 cells [3]; [8]) | Level observed in cells (CaCo-2 cells [3]; Time 60 min, without BC) | Level observed in cells (CaCo-2 cells [3]; [9]) | Level observed in cells (CaCo-2 cells [3]; Time 120 min, without BC) | Absorption in presence of black currant extract (in words) (CaCo-2 cells [3]) | AUC0-120 of cellular uptake (CaCo-2 cells [3]; [10]) | Cmax of cellular uptake (CaCo-2 cells [3]; [10]) | Factor by which absorption is increased in presence of Black Currant extract (CaCo-2 cells [3]) | AUC0-120 of cellular uptake (CaCo-2 cells [3]; without BC) | Cmax of cellular uptake (CaCo-2 cells [3]; without BC) | other results
N[C@@H](CS)C(=O)O [L-Cys, L-Cysteine] | – | – | – | – | – | – | – | – | – | – | – | – | – | – | – | – | – | – | – | – | Residual Ratio of lutein ([1]; 0.2 mg (0.17 μmol/ml) L-Cys, pH 7.0, 37° C., 5 hours, blank 86.82): 90.22%; Residual Ratio of lutein ([1]; 1.0 mg (0.8 μmol/ml) L-Cys, 4.3 μg free lutein, phosphate buffer pH 7.0, 37° C., 5 hours, blank (lutein alone) 86.82): 94.52%; Residual Ratio of lutein ([1]; 2.0 mg (1.7 μmol/ml) L-Cys, 4.3 μg free lutein, pH 7.0, 37° C., 5 hours, blank 86.82): 94.47%; Residual Ratio of lutein ([1]; 5.0 mg (4.1 μmol/ml) L-Cys, 4.3 μg free lutein, pH 7.0, 37° C., 5 hours, blank 86.82): 95.41%; Residual Ratio of lutein ([1]; 10.0 mg (8.2 μmol/ml) L-Cys, 4.3 μg free lutein, pH 7.0, 37° C., 5 hours, blank 86.82): 94.74%; Protection of lutein against degradation (in words) ([1]; neutral environmental conditions): remarkable protection; Concentration at which an enhanced protective effect on lutein was noted ([1]; pH 7.0, 37° C., 5 hours): about 4.1 μmol/ml
CC1=C[C@H](O)CC(C)(C)[C@H]1/C=C/C(C)=C/C=C/C(C)=C/C=C/C=C(C)/C=C/C=C(C)/C=C/C1=C(C)C[C@@H](O)CC1(C)C [Lutein, (3R,3′R,6′R)-beta, epsilon-carotene-3,3′-diol] | 87.3% | 85.6% | 85.8% | 85.5% | 86.6% | 87.3% | 0 µg/mL | 0 µg/mL | 2.120 µg/mL | 0.776 µg/mL | 2.346 µg/mL | 1.420 µg/mL | 1.897 µg/mL | 1.170 µg/mL | better absorption | 226.1 µg·min/mL | 2.346 µg/mL | ~2 | 122.3 µg·min/mL | 1.420 µg/mL | AUC(0-t) at 10 mg/100 mL ([2]; 37° C., 0-120 min, read-out: Total uptake of Lutein (AUC0-120min, trapezoidal rule) (converted)): 2.25 µg·h/mL; Cmax at 10 mg/100 mL ([2]; 37° C., 30, 60, 120 minutes): 1.53 µg/mL; Stability in incubation medium ([4]; Time 0 min): 100%; Stability in incubation medium [4, 11]: 108%; Breakdown in incubation medium (in words) [4]: no breakdown
CCCCCCCCCCCCCCCC(=O)O[C@@H]1CC(C)=C(/C=C/C(C)=C/C=C/C(C)=C/C=C/C=C(C)/C=C/C=C(C)/C=C/[C@H]2C(C)=C[C@H](OC(=O)CCCCCCCCCCCCCCC)CC2(C)C)C(C)(C)C1 [Luteinester, Luteindipalmitinic-ester] | – | – | – | – | – | – | – | – | – | – | – | – | – | – | – | – | – | – | – | – | Cmax of cellular uptake of Luteinester (CaCo-2 cells [5]): 0.530 µg/mL; Total uptake of Luteinester (AUC0-120min, trapezoidal rule) (CaCo-2 cells [5]): 42.2 µg·min/mL
CC1=C(/C=C/C(C)=C/C=C/C(C)=C/C=C/C=C(C)/C=C/C=C(C)/C=C/C2=C(C)C[C@@H](O)CC2(C)C)C(C)(C)C[C@H](O)C1 [Zeaxanthine, (3R,3′R)-beta, beta carotene-3,3′-diol] | 12.7% | 14.4% | 14.2% | 14.5% | 13.4% | 12.7% | 0 µg/mL | 0 µg/mL | 0.309 µg/mL | 0.131 µg/mL | 0.363 µg/mL | 0.240 µg/mL | 0.314 µg/mL | 0.181 µg/mL | better absorption | 35.01 µg·min/mL | 0.363 µg/mL | ~2 | 20.17 µg·min/mL | 0.240 µg/mL | Absorption of zeaxanthine compared to lutein (in words) (CaCo-2 cells [3]): better absorption as compared to lutein; Stability in incubation medium ([4]; Time 0 min): 100%; Stability in incubation medium [4, 11]: 106%; Breakdown in incubation medium (in words) [4]: no breakdown
